A short description of the series: activity coefficient (dimensionless); of the first substance listed, at infinite dilution; xn = mol fraction of the nth substance listed. The settings on record: Liquid, Chromatography, x1 = 0.

Values joined by “and” are separate entries in the source; they are usually repeats but may differ in a detail not shown here. Identical values can stand only once. ± gives the expanded uncertainty stated by the source.

For the molecule `CCCCC(=O)OC` [methyl pentanoate] + CCCCCC[n+]1ccn(C)c1.O=S(=O)([N-]S(=O)(=O)C(F)(F)F)C(F)(F)F, the activity coefficient reads like this: (322.75 K) 1.04 ± 0.07; (333.25 K) 1.03 ± 0.06; (343.65 K) 1.01 ± 0.06; (354.15 K) 0.99 ± 0.06.

Regarding `CCC(C)O` (centres undefined) [butan-2-ol] + CCCCCC[n+]1ccn(C)c1.O=S(=O)([N-]S(=O)(=O)C(F)(F)F)C(F)(F)F, the activity coefficient was 2.14 ± 0.15 (301.65 K), 1.9 ± 0.13 (312.15 K), 1.66 ± 0.11 (322.85 K) and 1.47 ± 0.1 (333.35 K).

Turning to `CCCCCCCC` [octane] + CCCCCC[n+]1ccn(C)c1.O=S(=O)([N-]S(=O)(=O)C(F)(F)F)C(F)(F)F, the activity coefficient reads like this: (300.95 K) 15.2 ± 1; (312.25 K) 14.3 ± 0.98; (322.85 K) 13.2 ± 0.9; (333.25 K) 12.2 ± 0.84; (343.75 K) 11.5 ± 0.78.

Take `CCCCCCCCC` [nonane] + CCCCCC[n+]1ccn(C)c1.O=S(=O)([N-]S(=O)(=O)C(F)(F)F)C(F)(F)F: the activity coefficient is 21.4 ± 1.5 (307.05 K); 20.5 and 20.3 (312.35 K); 18.9 and 18.6 (322.85 K).

`CCCCCCC(=O)OC` [methyl heptanoate] + CCCCCC[n+]1ccn(C)c1.O=S(=O)([N-]S(=O)(=O)C(F)(F)F)C(F)(F)F: the activity coefficient amounted to 1.6 ± 0.11 (354.15 K), 1.52 ± 0.1 (364.65 K), 1.44 ± 0.09 (375.15 K) and 1.38 ± 0.09 (385.65 K).

On to `CCCCCCCCCC` [decane] + CCCCCC[n+]1ccn(C)c1.O=S(=O)([N-]S(=O)(=O)C(F)(F)F)C(F)(F)F, for which the activity coefficient is, setting by setting: (307.05 K) 28.5 ± 1.9; (312.35 K) 27.4 ± 1.9; (322.85 K) 25.6 ± 1.8; (333.35 K) 22.9 ± 1.6.

Consider `CC(C)(C)O` [2-methylpropan-2-ol] + CCCCCC[n+]1ccn(C)c1.O=S(=O)([N-]S(=O)(=O)C(F)(F)F)C(F)(F)F, for which the activity coefficient is, setting by setting: (301.65 K) 1.7 ± 0.11; (312.15 K) 1.51 ± 0.1; (322.85 K) 1.34 ± 0.09; (333.35 K) 1.21 ± 0.08.

As to `CC#N` [acetonitrile] + CCCCCC[n+]1ccn(C)c1.O=S(=O)([N-]S(=O)(=O)C(F)(F)F)C(F)(F)F, the activity coefficient runs as follows: (312.25 K) 0.456 ± 0.036; (322.85 K) 0.446 ± 0.036; (333.35 K) 0.434 ± 0.035; (343.85 K) 0.426 ± 0.035; (354.25 K) 0.413 ± 0.034.

Take `CCCc1ccccc1` [propylbenzene] + CCCCCC[n+]1ccn(C)c1.O=S(=O)([N-]S(=O)(=O)C(F)(F)F)C(F)(F)F: the activity coefficient by setting is: (333.35 K) 2.1 ± 0.14; (343.85 K) 2.08 ± 0.14; (354.25 K) 2.03 ± 0.14; (364.65 K) 2.02 ± 0.14; (375.15 K) 2 ± 0.14; (385.65 K) 1.96 ± 0.13.

As to `OC1CCCCC1` [cyclohexanol] + CCCCCC[n+]1ccn(C)c1.O=S(=O)([N-]S(=O)(=O)C(F)(F)F)C(F)(F)F, the activity coefficient is 1.87 ± 0.13 (354.05 K); 1.6 ± 0.11 (364.55 K); 1.43 ± 0.09 (374.95 K); 1.29 ± 0.08 (385.45 K); 1.2 ± 0.08 (395.95 K).

For the molecule `CCCCCC(=O)OC` [methyl hexanoate] + CCCCCC[n+]1ccn(C)c1.O=S(=O)([N-]S(=O)(=O)C(F)(F)F)C(F)(F)F, the activity coefficient by setting is: (343.65 K) 1.39 ± 0.09; (354.15 K) 1.35 ± 0.09; (364.65 K) 1.29 ± 0.08; (375.15 K) 1.25 ± 0.08; (385.65 K) 1.2 ± 0.08.

Regarding `c1ccccc1` [benzene] + CCCCCC[n+]1ccn(C)c1.O=S(=O)([N-]S(=O)(=O)C(F)(F)F)C(F)(F)F, the activity coefficient is 0.779 and 0.778 (301.65 K); 0.776 ± 0.051 (306.95 K); 0.776 ± 0.051 (312.25 K); 0.777 ± 0.051 (322.75 K); 0.773 ± 0.051 (322.85 K); 0.777 and 0.774 (333.25 K). Moreover, the activity coefficient (343.75 K) is 0.769 ± 0.05.

In the case of `CCCCCCCO` [heptan-1-ol] + CCCCCC[n+]1ccn(C)c1.O=S(=O)([N-]S(=O)(=O)C(F)(F)F)C(F)(F)F, the activity coefficient reads like this: (354.05 K) 4.61 ± 0.31; (364.63 K) 4.13 ± 0.28; (375.05 K) 3.73 ± 0.25; (385.6 K) 3.42 ± 0.23.

With `CCCC(=O)OC` [methyl butanoate] + CCCCCC[n+]1ccn(C)c1.O=S(=O)([N-]S(=O)(=O)C(F)(F)F)C(F)(F)F, the activity coefficient worked out at 0.868 ± 0.055 (322.75 K), 0.874 ± 0.056 (333.25 K), 0.877 ± 0.056 (343.65 K) and 0.884 ± 0.056 (354.15 K).

As to `CC(C)=O` [acetone] + CCCCCC[n+]1ccn(C)c1.O=S(=O)([N-]S(=O)(=O)C(F)(F)F)C(F)(F)F, the activity coefficient reads like this: (301.75 K) 0.352 ± 0.032; (302.25 K) 0.352 ± 0.032; (312.25 K) 0.357 ± 0.033; (322.85 K) 0.362 ± 0.033; (333.35 K) 0.366 ± 0.033; (343.85 K) 0.371 ± 0.033. In addition, the activity coefficient (354.25 K) turned out to be 0.375 ± 0.033.

Regarding `CCCCC=O` [pentanal] + CCCCCC[n+]1ccn(C)c1.O=S(=O)([N-]S(=O)(=O)C(F)(F)F)C(F)(F)F, the activity coefficient (301.75 K) amounted to 1.11 ± 0.07; the activity coefficient (312.25 K) worked out at 1.1 ± 0.07; the activity coefficient (322.85 K) is 1.08 ± 0.068; the activity coefficient (333.35 K) turned out to be 1.06 ± 0.067; the activity coefficient (343.55 K) stood at 1.05 ± 0.066; the activity coefficient (354.05 K) came out at 1.03 ± 0.065. Besides, the activity coefficient runs as follows: (364.45 K) 1.01 ± 0.063; (374.95 K) 0.99 ± 0.062.

`C=CCCCCCCCC` [1-decene] + CCCCCC[n+]1ccn(C)c1.O=S(=O)([N-]S(=O)(=O)C(F)(F)F)C(F)(F)F: the activity coefficient is, setting by setting: (312.25 K) 16 ± 1.1; (322.85 K) 15.2 ± 1; (333.15 K) 14.1 ± 0.96; (333.25 K) 14.4 ± 0.98; (343.75 K) 13.5 and 13.3; (354.15 K) 13.1 ± 0.89. Besides, the activity coefficient (364.55 K) is 11.9 ± 0.81.

For `CC(C)CO` [2-methyl-1-propanol] + CCCCCC[n+]1ccn(C)c1.O=S(=O)([N-]S(=O)(=O)C(F)(F)F)C(F)(F)F, the activity coefficient is 2.46 ± 0.17 (301.65 K), 2.19 ± 0.15 (312.15 K), 1.9 ± 0.13 (322.85 K) and 1.68 ± 0.11 (333.35 K).

On to `CCO` [ethanol] + CCCCCC[n+]1ccn(C)c1.O=S(=O)([N-]S(=O)(=O)C(F)(F)F)C(F)(F)F, for which the activity coefficient runs as follows: (301.95 K) 1.95 ± 0.13; (312.45 K) 1.71 ± 0.11; (323.05 K) 1.51 ± 0.1; (333.45 K) 1.35 ± 0.09; (343.95 K) 1.2 ± 0.08; (354.45 K) 1.08 ± 0.07.

For `CCCCCC=O` [hexanal] + CCCCCC[n+]1ccn(C)c1.O=S(=O)([N-]S(=O)(=O)C(F)(F)F)C(F)(F)F, the activity coefficient by setting is: (333.15 K) 1.2 ± 0.077; (343.55 K) 1.21 ± 0.078; (354.05 K) 1.23 ± 0.079; (364.45 K) 1.24 ± 0.08; (374.95 K) 1.26 ± 0.081.

Regarding `C1=CCCCC1` [cyclohexene] + CCCCCC[n+]1ccn(C)c1.O=S(=O)([N-]S(=O)(=O)C(F)(F)F)C(F)(F)F, the activity coefficient turned out to be 3.41 ± 0.23 (301.85 K); 3.24 ± 0.22 (312.25 K); 3.08 ± 0.21 (322.85 K); 2.94 ± 0.2 (333.25 K); 2.83 ± 0.19 (343.75 K).

In the case of `CCCCCCC=O` [heptanal] + CCCCCC[n+]1ccn(C)c1.O=S(=O)([N-]S(=O)(=O)C(F)(F)F)C(F)(F)F, the activity coefficient turned out to be 1.11 ± 0.07 (343.55 K); 1.07 ± 0.068 (354.05 K); 1.02 ± 0.064 (364.45 K); 0.97 ± 0.061 (374.95 K); 0.92 ± 0.058 (385.35 K); 0.9 ± 0.057 (395.95 K).

Consider `CCC(C)(C)O` [2-methylbutan-2-ol] + CCCCCC[n+]1ccn(C)c1.O=S(=O)([N-]S(=O)(=O)C(F)(F)F)C(F)(F)F, for which the activity coefficient reads like this: (301.65 K) 1.7 ± 0.11; (312.25 K) 1.53 ± 0.1; (322.75 K) 1.4 ± 0.09; (333.25 K) 1.3 ± 0.08; (343.75 K) 1.22 ± 0.08; (354.05 K) 1.14 ± 0.07. Further, the activity coefficient (364.55 K) came to 1.06 ± 0.07.

Regarding `CCCCC` [pentane] + CCCCCC[n+]1ccn(C)c1.O=S(=O)([N-]S(=O)(=O)C(F)(F)F)C(F)(F)F, the activity coefficient by setting is: (301.95 K) 6.26 ± 0.43; (312.45 K) 5.44 ± 0.37; (323.05 K) 5.33 ± 0.36; (333.45 K) 4.72 ± 0.32; (343.95 K) 4.09 ± 0.28.

Source of the values: the NIST ThermoML archive (doi:10.1021/je0503554).
